Laboratory results published in patent publication US12064426B2, “Selective inhibitors of ROCK1 and ROCK2 protein kinases and uses thereof” (GENOSCO Inc., priority 2021, dated 2024).

Legend:
[1] = target: T1, Recombinant ROCK1 (amino acids 1-477) (Homo sapiens, UniProt Q13464); assay: ROCK inhibition assay, LANCE Ultra TR-FRET kinase assay (ROCK1); type: biochemical; conditions: 1 μM ATP, 50 nM ULight-CREBtide substrate
T1 construct: Recombinant ROCK1 (amino acids 1-477); by word order, ROCK1 from Carna Biosciences
Summary of the method: (§1)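 Reaction buffer 50 mM HEPES pH 7.5, 10 mM MgCl2, 1 mM EGTA, 2 mM DTT; kinase, ULight-CREBtide (50 nM) and ATP (ROCK1 1 μM, ROCK2 4 μM) react 1 h at room temperature. Phospho-Ser133 detected by europium antibody after 10 mM EDTA stop, TR-FRET ex 320 nm; IC50 calculated.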

[2] = target: T2, Recombinant ROCK2 (amino acids 5-554) (Homo sapiens, UniProt O75116); assay: ROCK inhibition assay, LANCE Ultra TR-FRET kinase assay (ROCK2); type: biochemical; conditions: 4 μM ATP, 50 nM ULight-CREBtide substrate
T2 construct: ROCK2 (amino acids 5-554); by word order, ROCK2 from SignalChem
Summary of the method: as §1

T1 sequence (Q13464 1-477): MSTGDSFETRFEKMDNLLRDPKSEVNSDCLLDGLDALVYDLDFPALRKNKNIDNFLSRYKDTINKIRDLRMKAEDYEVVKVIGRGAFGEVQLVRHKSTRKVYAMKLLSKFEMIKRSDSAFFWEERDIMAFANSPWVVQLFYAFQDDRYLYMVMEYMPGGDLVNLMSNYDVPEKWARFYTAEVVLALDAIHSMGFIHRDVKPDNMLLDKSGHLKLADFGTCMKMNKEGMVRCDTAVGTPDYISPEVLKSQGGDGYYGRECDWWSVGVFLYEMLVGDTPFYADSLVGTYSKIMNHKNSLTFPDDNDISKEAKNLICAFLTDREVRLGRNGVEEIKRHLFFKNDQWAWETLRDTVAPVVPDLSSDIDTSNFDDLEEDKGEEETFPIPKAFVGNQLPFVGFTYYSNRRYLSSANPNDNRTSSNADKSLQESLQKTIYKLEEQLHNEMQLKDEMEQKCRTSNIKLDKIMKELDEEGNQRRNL
T2 sequence (O75116 5-554): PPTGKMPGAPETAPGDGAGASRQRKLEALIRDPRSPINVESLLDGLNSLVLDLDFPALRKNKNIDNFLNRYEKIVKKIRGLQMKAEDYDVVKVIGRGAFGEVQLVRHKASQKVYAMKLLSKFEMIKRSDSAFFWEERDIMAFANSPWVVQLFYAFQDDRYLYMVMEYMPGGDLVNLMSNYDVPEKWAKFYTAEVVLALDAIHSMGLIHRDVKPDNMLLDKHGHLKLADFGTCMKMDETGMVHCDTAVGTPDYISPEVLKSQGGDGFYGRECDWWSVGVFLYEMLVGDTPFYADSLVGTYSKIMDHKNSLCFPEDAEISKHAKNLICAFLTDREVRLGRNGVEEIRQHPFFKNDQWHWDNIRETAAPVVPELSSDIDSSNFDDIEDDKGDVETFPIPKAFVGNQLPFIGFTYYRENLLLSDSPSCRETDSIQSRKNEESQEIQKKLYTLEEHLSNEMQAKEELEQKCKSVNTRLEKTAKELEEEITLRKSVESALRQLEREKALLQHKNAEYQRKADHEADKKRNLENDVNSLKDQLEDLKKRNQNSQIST

IC50 [1] [µM]	IC50 [2] [µM]	SMILES
0.101 to 0.5	0.01 to 0.1	O=C(NCc1ccccc1)c1cccc(Cn2cnc3cc(-c4cn[nH]c4C(F)(F)F)ccc3c2=O)c1 [Compound 371]
0.011 to 0.1	< 0.01	Cn1ccc(NC(=O)c2cccc(Cn3cnc4cc(-c5cn[nH]c5C(F)(F)F)ccc4c3=O)c2)n1 [Compound 374]
0.011 to 0.1	< 0.01	O=C(NC1CCN(C2COC2)CC1)c1cccc(Cn2cnc3cc(-c4cn[nH]c4C(F)(F)F)ccc3c2=O)c1 [Compound 377]
0.011 to 0.1	< 0.01	O=C(N[C@H]1CC[C@@H](O)CC1)c1cccc(Cn2cnc3cc(-c4cn[nH]c4C(F)(F)F)ccc3c2=O)c1 [Compound 382]
0.011 to 0.1	< 0.01	O=C(N[C@H]1CC[C@H](O)CC1)c1cccc(Cn2cnc3cc(-c4cn[nH]c4C(F)(F)F)ccc3c2=O)c1 [Compound 383]
0.011 to 0.1	< 0.01	[2H]C([2H])([2H])NC(=O)c1cc(F)cc(Cn2cnc3cc(-c4cn[nH]c4C(F)(F)F)ccc3c2=O)c1 [Compound 387]
0.011 to 0.1	< 0.01	CNC(=O)c1cc(F)cc(C(C)n2cnc3cc(-c4cn[nH]c4C(F)(F)F)ccc3c2=O)c1 (stereo not shown) [Compound 388]
0.011 to 0.1	0.01 to 0.1	CNC(=O)c1cc(Cn2cnc3cc(-c4cn[nH]c4C(F)(F)F)ccc3c2=O)ccc1F [Compound 389]
0.011 to 0.1	< 0.01	CNC(=O)c1cccc(Cn2cnc3cc(-c4cn[nH]c4C(F)F)ccc3c2=O)c1 [Compound 391]
0.011 to 0.1	0.01 to 0.1	CN(C)CCNC(=O)c1cccc(Cn2cnc3cc(-c4cn[nH]c4C(F)F)ccc3c2=O)c1 [Compound 394]
< 0.01	< 0.01	CN1CCC(CNC(=O)c2cccc(Cn3cnc4cc(-c5cn[nH]c5C(F)F)ccc4c3=O)c2)CC1 [Compound 395]
0.011 to 0.1	< 0.01	O=C(NCC1CCOCC1)c1cccc(Cn2cnc3cc(-c4cn[nH]c4C(F)F)ccc3c2=O)c1 [Compound 396]
0.011 to 0.1	< 0.01	[2H]C([2H])([2H])NC(=O)c1cc(F)cc(Cn2cnc3cc(-c4cn[nH]c4C(F)F)ccc3c2=O)c1 [Compound 402]
< 0.01	< 0.01	CNC(=O)c1cccc(Cn2cnc3cc(-c4cn[nH]c4Cl)ccc3c2=O)c1 [Compound 404]
< 0.01	< 0.01	[2H]C([2H])([2H])NC(=O)c1cccc(Cn2cnc3cc(-c4cn[nH]c4Cl)ccc3c2=O)c1 [Compound 405]
0.011 to 0.1	< 0.01	O=C(N[C@H]1CC[C@@H](O)CC1)c1cccc(Cn2cnc3cc(-c4cn[nH]c4Cl)ccc3c2=O)c1 [Compound 407]
< 0.01	< 0.01	O=C(NC1CCNCC1)c1cccc(Cn2cnc3cc(-c4cn[nH]c4Cl)ccc3c2=O)c1 [Compound 409]
< 0.01	< 0.01	CN1CCC(CNC(=O)c2cccc(Cn3cnc4cc(-c5cn[nH]c5Cl)ccc4c3=O)c2)CC1 [Compound 410]
0.011 to 0.1	< 0.01	CNC(=O)c1cccc(Cn2cnc3cc(-c4conc4C)ccc3c2=O)c1 [Compound 411]
0.011 to 0.1	< 0.01	[2H]C([2H])([2H])NC(=O)c1cccc(Cn2cnc3cc(-c4conc4C)ccc3c2=O)c1 [Compound 412]
0.101 to 0.5	0.01 to 0.1	Cc1nocc1-c1ccc2c(=O)n(Cc3cccc(C(=O)NC(C)C)c3)cnc2c1 [Compound 414]
< 0.01	< 0.01	Cc1nocc1-c1ccc2c(=O)n(Cc3cccc(C(=O)NCC4CCN(C)CC4)c3)cnc2c1 [Compound 417]
< 0.01	< 0.01	Cc1nocc1-c1ccc2c(=O)n(Cc3cccc(C(=O)NCC4CCNCC4)c3)cnc2c1 [Compound 418]
0.011 to 0.1	< 0.01	Cc1nocc1-c1ccc2c(=O)n(Cc3cccc(C(=O)NCCN4CCOCC4)c3)cnc2c1 [Compound 420]
0.011 to 0.1	< 0.01	Cc1nocc1-c1ccc2c(=O)n(Cc3cccc(C(=O)NCC(F)(F)F)c3)cnc2c1 [Compound 421]
0.011 to 0.1	< 0.01	CNC(=O)c1cc(F)cc(Cn2cnc3cc(-c4conc4C)ccc3c2=O)c1 [Compound 422]
0.011 to 0.1	< 0.01	[2H]C([2H])([2H])NC(=O)c1cccc(Cn2cnc3cc(-c4ccnn4C)ccc3c2=O)c1 [Compound 425]
0.011 to 0.1	< 0.01	CNC(=O)c1cccc(C(C)n2cnc3cc(-c4ccnn4C)ccc3c2=O)c1 (stereo not shown) [Compound 426]
0.011 to 0.1	< 0.01	Cn1nccc1-c1ccc2c(=O)n(Cc3cccc(C(=O)N[C@H]4C[C@@H](O)C4)c3)cnc2c1 [Compound 427]
0.011 to 0.1	< 0.01	Cn1nccc1-c1ccc2c(=O)n(Cc3cccc(C(=O)N[C@H]4CC[C@@H](O)CC4)c3)cnc2c1 [Compound 429]

The next lines start with the compound.

SMILES	IC50 [1] [µM]	IC50 [2] [µM]
CC(C)NC(=O)c1cccc(Cn2cnc3cc(-c4cn[nH]c4C(F)(F)F)ccc3c2=O)c1 [Compound 369]	0.011 to 0.1	< 0.01
O=C(NCCc1ccncc1)c1cccc(Cn2cnc3cc(-c4cn[nH]c4C(F)(F)F)ccc3c2=O)c1 [Compound 370]	< 0.01	< 0.01
O=C(NCc1ccncc1)c1cccc(Cn2cnc3cc(-c4cn[nH]c4C(F)(F)F)ccc3c2=O)c1 [Compound 372]	< 0.01	< 0.01
CS(=O)(=O)Nc1ccc(CNC(=O)c2cccc(Cn3cnc4cc(-c5cn[nH]c5C(F)(F)F)ccc4c3=O)c2)cc1 [Compound 373]	0.011 to 0.1	< 0.01
O=C(Nc1ccon1)c1cccc(Cn2cnc3cc(-c4cn[nH]c4C(F)(F)F)ccc3c2=O)c1 [Compound 375]	0.101 to 0.5	0.01 to 0.1
O=C(NC1CCOCC1)c1cccc(Cn2cnc3cc(-c4cn[nH]c4C(F)(F)F)ccc3c2=O)c1 [Compound 376]	0.011 to 0.1	< 0.01
CN1CCC(NC(=O)c2cccc(Cn3cnc4cc(-c5cn[nH]c5C(F)(F)F)ccc4c3=O)c2)CC1 [Compound 378]	< 0.01	< 0.01
O=C(NCC1CCOCC1)c1cccc(Cn2cnc3cc(-c4cn[nH]c4C(F)(F)F)ccc3c2=O)c1 [Compound 379]	0.011 to 0.1	< 0.01
O=C(NCC1COC1)c1cccc(Cn2cnc3cc(-c4cn[nH]c4C(F)(F)F)ccc3c2=O)c1 [Compound 380]	0.011 to 0.1	< 0.01
O=C(NCC1CCNCC1)c1cccc(Cn2cnc3cc(-c4cn[nH]c4C(F)(F)F)ccc3c2=O)c1 [Compound 381]	< 0.01	< 0.01
O=C(NCCO)c1cccc(Cn2cnc3cc(-c4cn[nH]c4C(F)(F)F)ccc3c2=O)c1 [Compound 384]	0.011 to 0.1	0.01 to 0.1
CS(=O)(=O)Nc1ccc(NC(=O)c2cccc(Cn3cnc4cc(-c5cn[nH]c5C(F)(F)F)ccc4c3=O)c2)cc1 [Compound 385]	0.101 to 0.5	0.01 to 0.1
CNC(=O)c1cc(F)cc(Cn2cnc3cc(-c4cn[nH]c4C(F)(F)F)ccc3c2=O)c1 [Compound 386]	0.011 to 0.1	< 0.01
[2H]C([2H])([2H])NC(=O)c1cccc(Cn2cnc3cc(-c4cn[nH]c4C(F)F)ccc3c2=O)c1 [Compound 392]	0.011 to 0.1	< 0.01
O=C(NCCO)c1cccc(Cn2cnc3cc(-c4cn[nH]c4C(F)F)ccc3c2=O)c1 [Compound 393]	0.011 to 0.1	< 0.01
O=C(NCc1ccnc(F)c1)c1cccc(Cn2cnc3cc(-c4cn[nH]c4C(F)F)ccc3c2=O)c1 [Compound 397]	0.011 to 0.1	< 0.01
CS(=O)(=O)c1cccc(CNC(=O)c2cccc(Cn3cnc4cc(-c5cn[nH]c5C(F)F)ccc4c3=O)c2)c1 [Compound 398]	0.101 to 0.5	0.01 to 0.1
CS(=O)(=O)Nc1cccc(CNC(=O)c2cccc(Cn3cnc4cc(-c5cn[nH]c5C(F)F)ccc4c3=O)c2)c1 [Compound 399]	0.101 to 0.5	0.01 to 0.1
CN(C)c1cccc(CNC(=O)c2cccc(Cn3cnc4cc(-c5cn[nH]c5C(F)F)ccc4c3=O)c2)c1 [Compound 400]	0.101 to 0.5	0.01 to 0.1
CNC(=O)c1cc(F)cc(Cn2cnc3cc(-c4cn[nH]c4C(F)F)ccc3c2=O)c1 [Compound 401]	0.011 to 0.1	< 0.01
CNC(=O)c1cncc(Cn2cnc3cc(-c4cn[nH]c4Cl)ccc3c2=O)c1 [Compound 403]	> 0.501	0.1 to 0.5
CNC(=O)c1cccc(C(C)n2cnc3cc(-c4cn[nH]c4Cl)ccc3c2=O)c1 (stereo not shown) [Compound 406]	0.011 to 0.1	< 0.01
CN1CCC(NC(=O)c2cccc(Cn3cnc4cc(-c5cn[nH]c5Cl)ccc4c3=O)c2)CC1 [Compound 408]	< 0.01	< 0.01
Cc1nocc1-c1ccc2c(=O)n(Cc3cccc(C(=O)NCC4COC4)c3)cnc2c1 [Compound 415]	0.011 to 0.1	< 0.01
Cc1nocc1-c1ccc2c(=O)n(Cc3cccc(C(=O)NCC4CCOCC4)c3)cnc2c1 [Compound 416]	0.011 to 0.1	< 0.01
Cc1nocc1-c1ccc2c(=O)n(Cc3cccc(C(=O)NCCc4cccnc4)c3)cnc2c1 [Compound 419]	< 0.01	< 0.01
[2H]C([2H])([2H])NC(=O)c1cc(F)cc(Cn2cnc3cc(-c4conc4C)ccc3c2=O)c1 [Compound 423]	0.011 to 0.1	< 0.01
Cn1nccc1-c1ccc2c(=O)n(Cc3cccc(C(=O)N[C@H]4C[C@H](O)C4)c3)cnc2c1 [Compound 428]	0.011 to 0.1	< 0.01
CN1CCC(NC(=O)c2cccc(Cn3cnc4cc(-c5ccnn5C)ccc4c3=O)c2)CC1 [Compound 430]	0.011 to 0.1	< 0.01
